Measured values published in article PMC3414448 (PLoS ONE, 2012).
Several values for one entry are separate records, joined by “and”; a condition that tells them apart may be missing. Identical values can stand only once. Like-named read-outs stand apart in the source and are kept apart here.

Legend:
[1] = test system: undifferentiated Caco-2 cells
[2] = test system: differentiated Caco-2 cells
[3] = test system: 8-hydroxydeoxyguanosine (8-OHdG)
[4] = test system: phosphorylated histone variant H2AX (γ-H2AX)
[5] = test system: 8-hydroxydeoxyguanosine (8-OHdG); remark: listed apart in the source
[6] = test system: phosphorylated histone variant H2AX (γ-H2AX); remark: listed apart in the source
[7] = test system: 8-hydroxydeoxyguanosine (8-OHdG); test: cells; conditions: Homo sapiens, Caco-2, 24 h, read-out: EC50 8-OHdG nuclear staining
[8] = test system: phosphorylated histone variant H2AX (γ-H2AX); test: cells; conditions: Homo sapiens, Caco-2, 24 h, read-out: EC50 γ-H2AX nuclear staining

| Structure (SMILES) | Cell Count (%Control) (CHO-K1 cells) | Cell Count (%Control) (A549 cells) | concentration at which nuclear area was significantly increased [1] | cytotoxicity in differentiated cells [2] | concentration at which 8-OHdG staining was significantly increased [3] | EC50 ([3]; read-out: EC50 8-OHdG nuclear staining) | concentration at which γ-H2AX staining was significantly increased [4] | γ-H2AX staining at non-cytotoxic concentrations [4] | concentration at which 8-OHdG was significantly increased [5] | concentration at which γ-H2AX staining was increased [6] | concentration at which nuclear area was significantly increased ([1]; undifferentiated Caco-2, 24 hr, p<0.05) | EC50 [7] | EC50 [8] |
| --- | --- | --- | --- | --- | --- | --- | --- | --- | --- | --- | --- | --- | --- |
| CO[C@@]12[C@H](COC(N)=O)C3=C(C(=O)C(C)=C(N)C3=O)N1C[C@@H]1N[C@@H]12 [MMC, mitomycin C] | 98.56 %Control and 101.70 %Control and 91.11 %Control | 98.78 %Control and 95.22 %Control and 78.78 %Control | – | – | – | – | – | – | – | – | – | – | – |
| OO [Peroxide, hydrogen peroxide] | – | – | ≥ 100 µM | Neither rotenone nor peroxide induced cytotoxicity | not statistically significant | 5.5 µM | 300 µM | increased γ-H2AX staining at the highest non-cytotoxic concentration (100 µM) | 100 µM | 1000 µM | – | – | – |
| C=C(C)[C@H]1Cc2c(ccc3c2O[C@@H]2COc4cc(OC)c(OC)cc4[C@@H]2C3=O)O1 [Rotenone, rotenone] | – | – | – | Neither rotenone nor peroxide induced cytotoxicity | – | – | – | – | – | – | all rotenone concentrations | 0.99 µM | 1.1 µM |
